In experiment [1] the test system is SHIP−/− bone marrow derived macrophages. The experiment can be described thus: LPS-stimulated TNFα production in SHIP−/− bone marrow derived macrophages. To be noted: SHIP−/− cells, 15 μM, 10 ng/mL LPS 2 h. Format: cell-based, mice. On the procedure: Bone marrow cells were aspirated from 4 to 8 week old C57B16×129Sv mixed background mice and SHIP^+/+ and SHIP^−/− mast cells prepared as described previously. Bone marrow derived macrophages from SHIP^+/+ and SHIP^−/− mice were obtained and maintained in IMDM supplemented with 10% FCS, 150 μM MTG, 2% C127 cell conditioned medium as a source of macrophage colony stimulating factor (M-CSF) (macrophage medium)
LPS stimulation of macrophages. For the analysis of LPS-stimulated TNFα production, 2×10^5 cells were plated the night before in 24 well plates in macrophage medium. The next day, the medium was changed and AQX-016A or carrier was added to cells at the indicated concentrations for 30 min prior to the addition of 10 ng/mL LPS. Supernatants were collected for TNFα determination by ELISA (BD Biosciences, Mississauga, ON, Canada). For analysis of intracellular signaling, 2×10^6 cells were plated the night before in 6 cm tissue culture plates. […] Calcium influx was monitored by spectrofluorometry. […] Total cell lysates were then prepared and analyzed for phospho-PKB, phospho-p38^MAPK, phospho-MAPK, Grb-2 (Cell Signalling, Mississauga, Ont) and SHIP^6 by immunoblot analysis.
The target specificity and biological efficacy of AQX-016A were assessed by comparing AQX-016A's effects on PI3K-regulated processes in primary SHIP^+/+ vs SHIP^−/− macrophages and mast cells. […]

Another experiment relates to wild-type SHIP. The experiment can be described thus: Scintillation proximity assay, wild-type SHIP. The experiment is classed as binding. Conditions: SPA beads. On the procedure:
Compound 100 was radiolabelled with tritium by GE Healthcare (Piscataway, N.J.) to a specific activity of 42 Ci/mmole. Copper chelate (His-Tag) YSi SPA Scintillation Beads (GE ealthcare, Piscataway, N.J.) were diluted in 0.25% BSA/TBS to 1.5 mg/mL and recombinant, His6-tagged protein added at the indicated concentrations: wild-type (1 pM), ΔC2 SHIP enzyme (1 pM) or C2 domain (10 nM). Protein was allowed to bind 1 h at 23° C., and 250 μg of beads were aliquoted per well of a 96-well plate. 5 μCi of [^3H]-Compound 100 was added per well, the plate gently agitated for 30 min and the amount of bead associated radioactivity quantified by counting in a Wallac BetaPlate plate scintillation counter.
Isolated recombinant, His6-tagged C2 domain was expressed and its PI-3,4-P2 binding ability was determined using protein lipid overlay assays. Purified C2 domain was incubated with membrane strips spotted with PI-3,4-P2 and bound protein detected using an anti-His6 antibody. As shown in FIG. 11C the C2 domain bound PI-3,4-P2 and this binding was inhibited by Compound 100, consistent with both Compound 100 and PI-3,4-P2 interacting with the C2 domain at a common binding site.

As to `Cc1cc(O)c(O)c2c1[C@]1(C)CCC3C(C)(C)CCC[C@]3(C)[C@H]1C2` (some centres unmarked) [AQX-016A], in experiment [1], the “suppression of TNFα production” value is recorded as 15%.
`Cc1cc(O)cc2c1[C@]1(C)CCC3C(C)(C)CCC[C@]3(C)[C@H]1C2` (some centres unmarked) [Compound 100]: the “binding of [3H]-Compound 100 to wild-type SHIP” value with wild-type SHIP is given as “bound to wild-type SHIP”.
